Source: patent publication US6355608B1, “Detergent composition” (Shiseido Co., Ltd., priority 1998, dated 2002)

Key:
[1] = Lathering/foaming test: foam volume in a mixer with artificial dirt; format: physicochemical; conditions: mixtures of N-methyl taurate laurate and sodium laurate, total 100 mmol/L; 400 ml with 2g artificial dirt, stirred 60 seconds
[2] = Foaming test with the shaking method; format: physicochemical
Method: (§1) 0.5 wt % of each sample in Table 1 was dissolved in ion exchanged water with 70 ppm calcium chloride already dissolved in it. […] This solution was kept at 30° C. put into a Nessler's tube with an inner diameter of 3 cm and a height of 20 cm equipped with a sliding plug, and then tilted 90 degrees every second using a pendulum type shaker. After one minute, the sample was taken out of the shaker and the foam height, the foam film thickness and the foam density were measured. The time required for the foam height to be reduced to a half of the original height was also measured. The foam film thickness was measured by taking a photograph of the foam using a microscope at 100 times magnification and calculating the average value on the photograph. The foam density was obtained by sampling 10 ml of the foam and measuring its weight.
as §1, with “Table 6” for “Table 1”, “30° C.,” for “30° C.”
as §1, with “Table 11” for “Table 1”, “30° C.,” for “30° C.”
as §1, with “sample” for “sample in Table 1”, “C.,” for “C.”, “weight. […]” for “weight.”

## CNCCS(=O)(=O)O [N-methyl taurine]
[1]
  Lathering/foaming ability (foam volume, FIG. 6): good lathering/foaming ability

## Magnesium laurate [Control sample 3]
[2]; pH 7
  Foaming (in words): harder to foam

## Potassium hydroxylaurate [Control sample 2]
[2]; pH 7
  Foaming (in words): harder to foam

## Potassium hydroxylauryl ether carboxylate [Control sample 2]
[2]; pH 4
  Foaming (in words): harder to foam

## Sodium hydroxylaurate [Control sample 1]
[2]; pH 7
  Foaming (in words): harder to foam

## Sodium hydroxylauryl ether carboxylate [Control sample 1]
[2]; pH 4
  Foaming (in words): harder to foam
